Laboratory results as given in patent US7772263B2, “Compounds for the treatment of inflammatory disorders” (Schering Corporation, priority 2006, dated 2010).

Each molecule was assayed against T1, purified catalytic domain of recombinant human TACE (rhTACEc) (Homo sapiens, UniProt P78536, N452Q/S266A) (assay: TACE kinetic assay, cleavage of internally quenched fluorescent peptide substrate SPDL-3). Settings: TACE inhibition, Table 1001; read-out: Ki Rating.
T1 construct: rhTACEc, Residue 215 to 477 with two mutation (S266A and N4520) and a 6×His tail; 6xHis (C); made in house; host or cells: baculovirus/Hi5 insect cells
T1 sequence (P78536 215-477 S266A/N452Q limits assumed): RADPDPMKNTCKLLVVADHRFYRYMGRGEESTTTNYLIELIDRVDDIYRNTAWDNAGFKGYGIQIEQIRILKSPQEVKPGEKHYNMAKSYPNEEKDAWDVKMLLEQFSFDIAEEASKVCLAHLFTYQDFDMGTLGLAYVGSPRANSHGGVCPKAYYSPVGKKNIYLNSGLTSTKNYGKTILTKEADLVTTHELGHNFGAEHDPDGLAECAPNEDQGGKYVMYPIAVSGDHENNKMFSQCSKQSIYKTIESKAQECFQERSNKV
Type: biochemical
In the case of `COc1ccc2c(c1)C(=O)N(C[C@@]1(C#Cc3cc(OC)cc4sc(N)nc34)NC(=O)NC1=O)C2` [Compound 950], the Ki is reported as < 5 nM. For `COc1ccc2c(c1)C(=O)N(C[C@@]1(C#Cc3cccc(S(N)(=O)=O)c3)NC(=O)NC1=O)C2` [Compound 945], the Ki was < 5 nM. In the case of `COc1ccc2c(c1)C(=O)N(C[C@@]1(C#Cc3cc(F)ccc3Cl)NC(=O)NC1=O)C2` [Compound 517], the Ki is reported as < 5 nM. For `COc1ccc2c(c1)C(=O)N(C[C@@]1(C#Cc3ccc(C(F)(F)F)nc3)NC(=O)NC1=O)C2` [Compound 519], the Ki was < 5 nM. In the case of `COc1cncc(C#C[C@]2(CN3Cc4ccc(OC)cc4C3=O)NC(=O)NC2=O)c1` [Compound 506], the Ki is reported as < 5 nM. With `COc1ccc2c(c1)C(=O)N(C[C@@]1(C#Cc3cccc(F)c3F)NC(=O)NC1=O)C2` [Compound 489] the Ki was < 5 nM. `O=C1NC(=O)C(C#Cc2cc(F)cc(F)c2)(CN2Cc3ccc(OC(F)F)cc3C2=O)N1` (stereo not drawn) [Compound 969] was tested, and the Ki was < 5 nM. With `COc1ccc2c(c1)C(=O)N(C[C@@]1(C#Cc3cccn(C)c3=O)NC(=O)NC1=O)C2` [Compound 540] the Ki was < 5 nM. In the case of `C#C[C@]1(CN2Cc3ccc(OC)cc3C2=O)NC(=O)NC1=O` [Compound 401], the Ki is reported as < 5 nM. With `COc1ccc2c(c1)C(=O)N(C[C@@]1(C#Cc3ncccn3)NC(=O)NC1=O)C2` [Compound 468] the Ki was < 5 nM. In the case of `COC(=O)c1ccc(C#C[C@]2(CN3Cc4ccc(OC)cc4C3=O)NC(=O)NC2=O)o1` [Compound 915], the Ki is reported as < 5 nM. With `COc1ccc2c(c1)C(=O)N(C[C@@]1(C#Cc3cc(Cl)cc(Cl)c3)NC(=O)NC1=O)C2` [Compound 449] the Ki was < 5 nM. In the case of `COc1ccc2c(c1)C(=O)N(C[C@@]1(C#Cc3ccccc3S(N)(=O)=O)NC(=O)NC1=O)C2` [Compound 947], the Ki is reported as < 5 nM. `COc1ccc2c(c1)C(=O)N(C[C@@]1(C#Cc3cccc(Cl)c3F)NC(=O)NC1=O)C2` [Compound 488] was tested, and the Ki was < 5 nM. For `COc1ccc2c(c1)C(=O)N(C[C@@]1(C#Cc3cncc(C4(N)CC4)c3)NC(=O)NC1=O)C2` [Compound 480], the Ki was < 5 nM. `COc1ccc2c(c1)C(=O)N(C[C@@]1(C#Cc3cc(F)ccc3F)NC(=O)NC1=O)C2` [Compound 521] was tested, and the Ki was < 5 nM. `COc1ccc2c(c1)C(=O)N(C[C@@]1(C#Cc3cccc(S(C)(=O)=O)c3)NC(=O)NC1=O)C2` [Compound 451] was tested, and the Ki was < 5 nM. In the case of `COc1ccc2c(c1)C(=O)N(C[C@@]1(C#Cc3cnn(C)c3)NC(=O)NC1=O)C2` [Compound 487], the Ki is reported as < 5 nM. For `COc1ccc2c(c1)C(=O)N(C[C@@]1(C#Cc3cnccn3)NC(=O)NC1=O)C2` [Compound 469], the Ki was < 5 nM. In the case of `COc1ccc2c(c1)C(=O)N(C[C@@]1(C#Cc3ccc(C(N)=O)s3)NC(=O)NC1=O)C2` [Compound 538], the Ki is reported as < 5 nM. In the case of `COc1ccc2c(c1)C(=O)N(C[C@@]1(C#Cc3ccc(C)c(Cl)c3)NC(=O)NC1=O)C2` [Compound 428], the Ki is reported as < 5 nM. With `COc1ccc2c(c1)C(=O)N(C[C@@]1(C#Cc3cccnc3C(=O)O)NC(=O)NC1=O)C2` [Compound 925] the Ki was < 5 nM.

Same assay, conditions: TACE; class letters A-D; read-out: Ki Rating
With `COC(=O)c1ccncc1C#C[C@]1(CN2Cc3ccc(OC)cc3C2=O)NC(=O)NC1=O` [Compound 1516] the Ki was < 5 nM. With `COc1ccc2c(c1)C(=O)N(C[C@@]1(C#Cc3cnc(-c4cccnc4)nc3)NC(=O)NC1=O)C2` [Compound 1256C] the Ki was < 5 nM. In the case of `COc1ccc2c(c1)C(=O)N(C[C@@]1(C#Cc3ccc4c(c3)CCO4)NC(=O)NC1=O)C2` [Compound 1047], the Ki is reported as < 5 nM. In the case of `COc1ccc2c(c1)C(=O)N(C[C@@]1(C#Cc3ccnc(C(N)=O)c3)NC(=O)NC1=O)C2` [Compound 1512], the Ki is reported as < 5 nM. For `COc1ccc2c(c1)C(=O)N(C[C@@]1(C#Cc3ccc4cc[nH]c4c3)NC(=O)NC1=O)C2` [Compound 1131], the Ki was < 5 nM. For `O=C1NC(=O)[C@@](C#Cc2cccnc2)(CN2Cc3ccc(F)cc3C2=O)N1` [Compound 1200], the Ki was < 5 nM. In the case of `COc1ccc2c(c1)C(=O)N(C[C@@]1(C#Cc3cc(C)ccc3O)NC(=O)NC1=O)C2` [Compound 1509], the Ki is reported as < 5 nM. With `COc1ccc2c(c1)C(=O)N(C[C@@]1(C#Cc3cnc4[nH]c(C)nc4c3C)NC(=O)NC1=O)C2` [Compound 1098] the Ki was < 5 nM. In the case of `CON=Cc1ccc(C#C[C@@]2(CN3Cc4ccc(OC)cc4C3=O)NC(=O)NC2=O)cc1` [Compound 1081], the Ki is reported as > 100 nM. With `CCOC(=O)c1ccc(C#C[C@]2(CN3Cc4ccc(OC)cc4C3=O)NC(=O)NC2=O)cc1` [Compound 1135] the Ki was < 5 nM. For `COc1ccc2c(c1)C(=O)N(C[C@@]1(C#Cc3ccc(OC(C)C)cc3)NC(=O)NC1=O)C2` [Compound 1057], the Ki was < 5 nM. In the case of `COc1ccc2c(c1)C(=O)N(C[C@@]1(C#Cc3ccc(C(=O)NC4CC4)nc3)NC(=O)NC1=O)C2` [Compound 1518], the Ki is reported as < 5 nM. With `COc1ccc2c(c1)C(=O)N(C[C@@]1(C#Cc3ccc(C)nc3)NC(=O)NC1=O)C2` [Compound 1155] the Ki was < 5 nM. `COc1ccc2c(c1)C(=O)N(C[C@]1(C#Cc3cncc(O)c3)NC(=O)NC1=O)C2` [Compound 1066] was tested, and the Ki was > 100 nM. In the case of `COc1ccc2c(c1)C(=O)N(C[C@@]1(C#Cc3ccc(C)nc3N)NC(=O)NC1=O)C2` [Compound 1559], the Ki is reported as < 5 nM. For `CON=Cc1ccc(C#C[C@]2(CN3Cc4ccc(OC)cc4C3=O)NC(=O)NC2=O)s1` [Compound 1084], the Ki was < 5 nM. In the case of `COc1ccc2c(c1)C(=O)N(C[C@@]1(C#Cc3cnccc3C3CC3)NC(=O)NC1=O)C2` [Compound 1222], the Ki is reported as < 5 nM. For `COc1ccc2c(c1)C(=O)N(C[C@@]1(C#Cc3ccc4[nH]c(=O)[nH]c(=O)c4c3)NC(=O)NC1=O)C2` [Compound 1566], the Ki was < 5 nM. `COc1ccc2c(c1)C(=O)N(C[C@@]1(C#Cc3ccccc3C(N)=O)NC(=O)NC1=O)C2` [Compound 1137] was tested, and the Ki was < 5 nM. For `COc1ccc2c(c1)C(=O)N(C[C@@]1(C#Cc3cccnc3C#N)NC(=O)NC1=O)C2` [Compound 1018], the Ki was < 5 nM. For `COc1ccc2c(c1)C(=O)N(C[C@@]1(C#Cc3cnc(N4CCSCC4)nc3N)NC(=O)NC1=O)C2` [Compound 1572], the Ki was < 5 nM. For `COc1ccc2c(c1)C(=O)N(C[C@@]1(C#Cc3cnc(O)nc3N)NC(=O)NC1=O)C2` [Compound 1567], the Ki was < 5 nM. For `COc1ccc2c(c1)C(=O)N(C[C@@]1(C#Cc3cc(Cl)c(Br)s3)NC(=O)NC1=O)C2` [Compound 1071], the Ki was < 5 nM. With `COc1ccc2c(c1)C(=O)N(C[C@@]1(C#Cc3cncc(Cl)c3)NC(=O)NC1=O)C2` [Compound 1006] the Ki was < 5 nM. In the case of `COc1ccc2c(c1)C(=O)N(C[C@@]1(C#Cc3ccc(C#N)cc3)NC(=O)NC1=O)C2` [Compound 1045], the Ki is reported as < 5 nM. In the case of `COc1ccc2c(c1)C(=O)N(C[C@@]1(C#Cc3cc4ccccc4[nH]c3=O)NC(=O)NC1=O)C2` [Compound 1569], the Ki is reported as < 5 nM. With `COc1ccc2c(c1)C(=O)N(C[C@@]1(C#Cc3ccc4c(c3)CCC43NC(=O)NC3=O)NC(=O)NC1=O)C2` (stereo partly drawn) [Compound 1576] the Ki was < 5 nM. For `COc1ccc2c(c1)C(=O)N(C[C@@]1(C#Cc3ccc4nnn(C)c4c3)NC(=O)NC1=O)C2` [Compound 1520], the Ki was < 5 nM. In the case of `COc1ccc2c(c1)C(=O)N(C[C@@]1(C#Cc3cnccc3OC)NC(=O)NC1=O)C2` [Compound 1579], the Ki is reported as < 5 nM. For `COc1ccc2c(c1)C(=O)N(C[C@@]1(C#Cc3ccc(Cl)s3)NC(=O)NC1=O)C2` [Compound 1049], the Ki was < 5 nM. In the case of `COc1ccc2c(c1)C(=O)N(C[C@@]1(C#Cc3cccc(C4(C)NC(=O)NC4=O)c3)NC(=O)NC1=O)C2` (stereo partly drawn) [Compound 1580], the Ki is reported as < 5 nM.

Same assay, conditions: rhTACEc 70 pM, 30 μM SPDL-3, 90 min pre-incubation at 25° C.; read-out: Ki (nM), TACE inhibitory activity
`COc1ccc2c(c1)C(=O)N(C[C@@]1(C#Cc3ccc(C)nc3)NC(=O)NC1=O)C2` [Compound 1155] showed a Ki of 0.41 nM.
